Measurements reported in patent US11723920B2, “Method for treating cancer with a nanoformulation” (Imam Abdulrahman Bin Faisal University, priority 2019, dated 2023).

Test system: human mammary adenocarcinoma cell line, MCF-7
Test: Cell viability MTT assay on MCF-7 cells
Format: cell-based
Conditions: MCF-7, 48 h
Protocol: Cells were maintained in DMEM (Dulbecco's Modified Eagle Medium) (Gibco, life technologies) supplemented with 10% heat inactivated fetal bovine serum (HI-FBS) (Gibco, life technology), 1% Penicillin Streptomycin (100×— Gibco, life technology), and 1% MEM NEAA (MEM non-essential amino acids) (100×— Gibco, life technology). Cells were kept in a humidified incubator at 37° C. with 5% CO2. For the experimental setup, MCF-7 cells were seeded on a 96-well plate at a density of 20,000 cells/well. On the next day, cells were shifted to the starve media (0.5% HI-FBS containing media) for 24 h before treatment.
For groups B, C, E, and F, treatment concentrations were as follows: 0.025, 0.05, 0.1, and 0.5 mg/mL. […] Therefore, treatment concentrations for group A were as follows: 0.0084, 0.0168, 0.0336, and 0.168 mg/mL. Treatment concentrations used in this experiment for group D were as follows: 0.001125, 0.00225, 0.0045, 0.0225 mg/mL.
The viability of cells was tested using 3-(4,5-dimethylthiazol-2-yl)-2,5-diphenyltetrazolium bromide (MTT) assay. It is based on the ability to reduce MTT relative to formazan crystals. […] The change in color intensity was measured at 570 nm wavelength using SYNERGY-neo2 BioTek ELISA reader. […] The reading of each triplicate was averaged and subtracted from the averaged MTT background control reading. […]

N.N.[Cl][Pt][Cl] [cisplatin] was tested, and the “effect on cell viability (in words)” value was “significantly reduced cell viability”.
